Experimental data from patent US5604213A, “17-substituted steroids useful in cancer treatment” (priority 1992, dated 1997).

How the values were obtained:
17α-hydroxylase = target: T1, 17α-hydroxylase (Homo sapiens, UniProt P05093); assay: Determination of 17α-hydroxylase (human testicular microsomes, 3H-progesterone); type: biochemical; details: for concentration required to achieve 50% inhibition of hydroxylase, versus the 3-pyridyl (in words): compared with 3-pyridyl
T1 construct: Human testes were obtained from previously untreated patients undergoing orchidectomy for prostatic cancer; from tissue; host or cells: human testes, microsomes
T1 sequence (P05093 1-508): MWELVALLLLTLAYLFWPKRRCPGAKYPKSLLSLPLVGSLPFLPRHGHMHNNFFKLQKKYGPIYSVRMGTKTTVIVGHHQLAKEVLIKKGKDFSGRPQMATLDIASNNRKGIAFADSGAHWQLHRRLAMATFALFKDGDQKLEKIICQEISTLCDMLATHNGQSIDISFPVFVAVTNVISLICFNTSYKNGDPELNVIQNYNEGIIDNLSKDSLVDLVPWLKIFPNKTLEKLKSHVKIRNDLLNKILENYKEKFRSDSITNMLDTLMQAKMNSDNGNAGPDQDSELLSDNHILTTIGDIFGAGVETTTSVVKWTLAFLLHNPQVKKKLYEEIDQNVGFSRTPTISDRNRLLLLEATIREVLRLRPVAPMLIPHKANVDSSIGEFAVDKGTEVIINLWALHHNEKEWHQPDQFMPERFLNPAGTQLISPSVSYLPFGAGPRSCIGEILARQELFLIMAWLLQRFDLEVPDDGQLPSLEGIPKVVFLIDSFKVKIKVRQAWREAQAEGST
Procedure: Human testes were obtained from previously untreated patients undergoing orchidectomy for prostatic cancer. The testes were decapsulated and stored in liquid nitrogen until use. A microsomal preparation was prepared essentially as described by S. E. Barrie et al., J. Steroid Biochem. 6, 1191-5, (1989). The material was then thawed, finely chopped, and homogenised in 0.25M sucrose (5 ml/g wet weight) using a Potter homogeniser. The homogenate was centrifuged at 12000 g for 30 min, and then the microsomes were pelleted by spinning the supernatant at 100,000 g for 1 hr. The pellet was washed by being resuspended in 0.25M sucrose and repelleted. The microsomal pellet was then resuspended in 50 mM sodium phosphate pH 7.4/glycerol (3/1 v/v) and stored in aliquots in liquid nitrogen.
(§2) The basic assay mixture was EDTA (0.2 mM), dithiothreitol (DTT; 0.1 mM), NADPH (0.25 mM), glucose 6-phosphate dehydrogenase (G6PDH; 6.25 μg/ml), MgCl2 (1 mM), glucose 6-phosphate (G6P; 10 mM) and the substrate, 3H-progesterone (3 μM) in sodium phosphate (50 mm), pH 7.4. The compounds under test were dissolved in 50% DMSO and the final concentrations of ethanol and DMSO were 1% each. The assay reaction was carded out for 1 hour and was terminated by the addition of 2 vols. of methanol-acetonitrile (2:1) containing approx. 100 μM unlabelled progesterone, 17α-hydroxyprogesterone, androstenedione, testosterone, and 16α-hydroxyprogesterone.
The separation of the steroids by HPLC was carried out using an "Uptight" guard column packed with 40-63 μm Nucleosil C18 and a 10 cm main column packed with 5 μm Nucleosil C18 and 60% methanol as eluant. The radioactivity in the peaks of interest was monitored on-line by mixing the HPLC effluent 1:1 with Ecoscint A (National Diagnostics) scintillation fluid, containing 25% acetonitrile, and passing the mixture through a Berthold LB506C radiochemical monitor. The hydroxylase activity was measured as the production of 17α-hydroxyprogesterone, androstenedione and testosterone.
The enzyme activity was measured in the presence of at least 4 concentrations of each compound. The data were for the 4-pyridyl and 2-picolyl compounds of Table 1 fitted by linear regression to the Dixon equation (M. Dixon, E.C. Webb, Enzymes, 2nd ed., Academic Press, New York, 1964). Data for all the other compounds were fitted by non-linear regression to the median effect equation of Chou, J. Theoret.

C17-C20 lyase = target: T2, C17-C20 lyase (Homo sapiens, UniProt P05093); assay: Determination of C17-C20 lyase (human testicular microsomes, 3H-17α-hydroxyprogesterone); type: biochemical; details: for concentration required to achieve 50% inhibition of lyase, versus the 3-pyridyl (in words): compared with 3-pyridyl
T2 construct: Human testes were obtained from previously untreated patients undergoing orchidectomy for prostatic cancer; from tissue; host or cells: human testes, microsomes
T2 sequence (P05093 1-508): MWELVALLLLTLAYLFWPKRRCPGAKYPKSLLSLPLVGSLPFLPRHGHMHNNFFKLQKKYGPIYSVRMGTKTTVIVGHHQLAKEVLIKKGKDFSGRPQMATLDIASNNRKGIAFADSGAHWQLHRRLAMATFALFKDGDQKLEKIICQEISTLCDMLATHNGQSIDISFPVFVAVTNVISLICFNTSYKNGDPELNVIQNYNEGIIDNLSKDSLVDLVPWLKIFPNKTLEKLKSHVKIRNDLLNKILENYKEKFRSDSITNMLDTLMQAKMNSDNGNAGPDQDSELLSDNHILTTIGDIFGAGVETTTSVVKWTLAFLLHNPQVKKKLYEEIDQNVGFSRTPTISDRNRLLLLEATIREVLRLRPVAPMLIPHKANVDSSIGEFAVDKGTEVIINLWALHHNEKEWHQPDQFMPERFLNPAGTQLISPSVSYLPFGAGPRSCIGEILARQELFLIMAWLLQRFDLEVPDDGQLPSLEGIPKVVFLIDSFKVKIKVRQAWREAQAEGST
Procedure: The testes were decapsulated and stored in liquid nitrogen until use. […] The material was then thawed, finely chopped, and homogenised in 0.25M sucrose (5 ml/g wet weight) using a Potter homogeniser. The homogenate was centrifuged at 12000 g for 30 min, and then the microsomes were pelleted by spinning the supernatant at 100,000 g for 1 hr. The pellet was washed by being resuspended in 0.25M sucrose and repelleted. The microsomal pellet was then resuspended in 50 mM sodium phosphate pH 7.4/glycerol (3/1 v/v) and stored in aliquots in liquid nitrogen.
as §2
The HPLC separation used for the lyase involved a mini-re-column "Uptight Guard Column" packed with PELL-ODS (pellicular octadecyl silica) and a 10 cm. main column "Apex C18" column packed with 5μ APEX-CAT silica.
The eluant was 38:12:50 methanol:acetonitrile:water flowing at 1 ml/min. The effluent was mixed 1:1 with Ecoscint A containing 5% methanol and 5% acetonitrile and the radioactivity was measured directly by a Berthold LB506C radiochemical detector. The lyase activity was measured as the production of androstenedione and testosterone.
The enzyme activity was measured in the presence of at least 4 concentrations of each compound.

Male HWT mice = assay: In vivo organ weight test in mice; details: for Mean weight ± standard error, Adrenals / Mean weight ± standard error, Kidneys / Mean weight ± standard error, Prostate / Mean weight ± standard error, Seminal Vesicles / Mean weight ± standard error, Testes: 2 weeks
Procedure: (§1) Male HWT mice, 12 weeks old, were treated daily for 2 weeks, with 5 animals per treatment group. The test compounds were the compound of Examples 1 and 4 (as representative of compounds of the invention having the pregenolone-like and progesterone-like skeletons respectively). Ketoconazole was also tested at three different doses. The test compounds were made up in 5% benzyl alcohol, 95% safflower oil, and were given i.p. In addition to an untreated control group of animals, there was also a solvent control group which received the same volume of liquid as the test group (5 ml/kg) but no test compound. All animals were sacrificed 24 hours after the last injection. Blood was collected by cardiac puncture into heparinized tubes, and the plasma used for RIA (radio immunoassay) of testosterone and luteinising hormone. The following organs were removed and weighed: adrenals, prostate, seminal vesicles, testes, kidneys. There was no significant body weight loss in any group of mice during the experiments.

luteinising hormone = assay: In vivo endocrine test in mice: plasma luteinising hormone (RIA); details: 2 weeks
Procedure: as §1

[1] = parameters: species or system mice; details: mouse, in vivo; for post mortem examination: appearance of organs / post mortem examination: deposits: ip
Procedure: as §1
In Ketoconazole-treated animals, adhesions were found in 2/5,2/5,4/5 of the low/middle/top dose groups. […] The livers were brown in the middle/top dose groups.

testosterone = assay: In vivo endocrine test in mice: plasma testosterone (RIA); details: 2 weeks
Procedure: Male HWT mice, 12 weeks old, were treated daily for 2 weeks, with 5 animals per treatment group. […] The test compounds were made up in 5% benzyl alcohol, 95% safflower oil, and were given i.p. In addition to an untreated control group of animals, there was also a solvent control group which received the same volume of liquid as the test group (5 ml/kg) but no test compound. All animals were sacrificed 24 hours after the last injection. Blood was collected by cardiac puncture into heparinized tubes, and the plasma used for RIA (radio immunoassay) of testosterone and luteinising hormone.

aromatase = target: T3, aromatase (Homo sapiens, UniProt P11511); type: biochemical; details: human placental microsomes
T3 construct: using human placental microsomes; from tissue; host or cells: human placenta, microsomes
T3 sequence (P11511 1-503): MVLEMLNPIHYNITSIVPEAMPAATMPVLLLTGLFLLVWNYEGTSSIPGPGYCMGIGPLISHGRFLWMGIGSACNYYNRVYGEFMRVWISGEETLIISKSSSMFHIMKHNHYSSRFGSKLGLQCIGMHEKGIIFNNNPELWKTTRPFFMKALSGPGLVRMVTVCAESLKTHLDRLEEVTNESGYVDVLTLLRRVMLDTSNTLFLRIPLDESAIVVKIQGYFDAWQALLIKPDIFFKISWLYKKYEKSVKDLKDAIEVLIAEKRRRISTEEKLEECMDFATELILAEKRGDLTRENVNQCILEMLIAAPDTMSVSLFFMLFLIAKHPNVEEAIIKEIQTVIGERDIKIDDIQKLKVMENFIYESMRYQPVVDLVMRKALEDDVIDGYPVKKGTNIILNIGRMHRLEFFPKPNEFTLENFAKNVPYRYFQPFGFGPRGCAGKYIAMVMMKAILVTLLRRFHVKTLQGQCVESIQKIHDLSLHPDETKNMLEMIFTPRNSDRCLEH
Procedure: Aromatase activity was determined by the method of A. B. Foster et al., J. Med. Chem. 26, 50-54 (1983), using human placental microsomes.

[2] = substrate: C[C@]12CCC(=O)C=C1CC[C@@H]1[C@@H]2CC[C@]2(C)C(=O)CC[C@@H]12; assay: cells, lysate or membranes named; details: other: human placental microsomes used

Molecule: C[C@]12CC[C@H](O)CC1=CC[C@@H]1[C@@H]2CC[C@]2(C)C(c3ccncc3)=CC[C@@H]12 [Example 4-pyridyl]
- concentration required to achieve 50% inhibition of hydroxylase, versus the 3-pyridyl (in words) (17α-hydroxylase): far greater
- concentration required to achieve 50% inhibition of lyase, versus the 3-pyridyl (in words) (C17-C20 lyase): far greater

Molecule: C[C@]12CC[C@H](O)CC1=CC[C@@H]1[C@@H]2CC[C@]2(C)C(Cc3ccccn3)=CC[C@@H]12 [Example 2-picolyl]
- concentration required to achieve 50% inhibition of hydroxylase, versus the 3-pyridyl (in words) (17α-hydroxylase): far greater
- concentration required to achieve 50% inhibition of lyase, versus the 3-pyridyl (in words) (C17-C20 lyase): far greater

Molecule: CC(=O)N1CCN(c2ccc(OCC3COC(Cn4ccnc4)(c4ccc(Cl)cc4Cl)O3)cc2)CC1 (stereo not shown) [Ketoconazole]
- Mean weight ± standard error, Adrenals (Male HWT mice; 0.01 mmol/kg/day i.p.): 4.8 ± 0.2 mg
- Mean weight ± standard error, Kidneys (Male HWT mice; 0.01 mmol/kg/day i.p.): 637 ± 22 mg
- Mean weight ± standard error, Prostate (Male HWT mice; 0.01 mmol/kg/day i.p.): 9.1 ± 0.8 mg
- Mean weight ± standard error, Seminal Vesicles (Male HWT mice; 0.01 mmol/kg/day i.p.): 235 ± 18 mg
- Mean weight ± standard error, Testes (Male HWT mice; 0.01 mmol/kg/day i.p.): 141 ± 5 mg
- Mean weight ± standard error, Adrenals (Male HWT mice; 0.225 mmol/kg/day i.p.): 6.1 ± 0.3 mg
- Mean weight ± standard error, Kidneys (Male HWT mice; 0.225 mmol/kg/day i.p.): 574 ± 23 mg
- Mean weight ± standard error, Prostate (Male HWT mice; 0.225 mmol/kg/day i.p.): 10.8 mg
- Mean weight ± standard error, Seminal Vesicles (Male HWT mice; 0.225 mmol/kg/day i.p.): 171 ± 5 mg
- Mean weight ± standard error, Testes (Male HWT mice; 0.225 mmol/kg/day i.p.): 127 ± 7 mg
- Mean weight ± standard error, Adrenals (Male HWT mice; 0.5 mmol/kg/day i.p.): 6.9 ± 0.3 mg
- Mean weight ± standard error, Kidneys (Male HWT mice; 0.5 mmol/kg/day i.p.): 710 ± 30 mg
- Mean weight ± standard error, Prostate (Male HWT mice; 0.5 mmol/kg/day i.p.): 9.3 ± 0.9 mg
- Mean weight ± standard error, Seminal Vesicles (Male HWT mice; 0.5 mmol/kg/day i.p.): 179 ± 20 mg
- Mean weight ± standard error, Testes (Male HWT mice; 0.5 mmol/kg/day i.p.): 133 ± 6 mg
- effect on adrenal weight (Male HWT mice; two highest doses): increase in adrenal weight
- LH (Mean ± standard error) (luteinising hormone; 0.1 mmol/kg/day i.p.): 0.39 ± 0.14 ng/mL
- LH (Mean ± standard error) (luteinising hormone; 0.225 mmol/kg/day i.p.): 0.75 ± 0.02 ng/mL
- LH (Mean ± standard error) (luteinising hormone; 0.5 mmol/kg/day i.p.): 0.76 ± 0.03 ng/mL
- appearance of livers [1]: brown
- gut and peritoneal wall, appearance [1]: seemed to be stuck to the seminal vesicles

Molecule: C[C@]12CCC(=O)C=C1CC[C@@H]1[C@@H]2CC[C@]2(C)C(c3cccnc3)=CC[C@@H]12 [Ex. 4, 17-(3-Pyridyl)androsta-4,16-dien-3-one]
- Mean weight ± standard error, Adrenals (Male HWT mice; 0.02 mmol/kg/day i.p.): 4.7 ± 0.2 mg
- Mean weight ± standard error, Seminal Vesicles (Male HWT mice; 0.02 mmol/kg/day i.p.): 108 ± 4 mg
- Mean weight ± standard error, Adrenals (Male HWT mice; 0.1 mmol/kg/day i.p.): 4.6 ± 0.4 mg
- Mean weight ± standard error, Seminal Vesicles (Male HWT mice; 0.1 mmol/kg/day i.p.): 61 ± 9 mg
- Mean weight ± standard error, Adrenals (Male HWT mice; 0.5 mmol/kg/day i.p.): 4.9 ± 0.1 mg
- Mean weight ± standard error, Seminal Vesicles (Male HWT mice; 0.5 mmol/kg/day i.p.): 25 ± 1 mg
- Testosterone (Mean ± standard error) (testosterone; 0.02 mmol/kg/day i.p.): 4.5 ± 0.3 nM
- Testosterone (Mean ± standard error) (testosterone; 0.1 mmol/kg/day i.p.): 3.5 ± 1.0 nM
- Testosterone (Mean ± standard error) (testosterone; 0.5 mmol/kg/day i.p.): 0.4 ± 0.1 nM
- post mortem examination: appearance of organs [1]: all organs looked normal
- post mortem examination: deposits [1]: white deposits throughout the abdomen

Molecule: CC12CCC(Oc3c(F)c(F)c(C(F)(F)F)c(F)c3F)CC1=CCC1C2CCC2(C)C(c3cccnc3)=CCC12 (stereo not shown)
- inhibition of hydroxylase (in words) (17α-hydroxylase): very poor inhibitor
- inhibition of lyase (in words) (C17-C20 lyase): very poor inhibitor

Molecule: C[C@]12CC[C@H](O)CC1=CC[C@@H]1[C@@H]2CC[C@]2(C)C(c3cccnc3)=CC[C@@H]12 [Ex. 2, 17-(3-Pyridyl)androsta-5,16-dien-3β-ol]
- IC50 (aromatase): > 20000 nM

Molecule: CC(=O)O[C@H]1CC[C@@]2(C)C(=CC[C@@H]3[C@@H]2CC[C@]2(C)C(c4cccnc4)=CC[C@@H]32)C1 [Ex. 1, 3β-Acetoxy-17-(3-pyridyl)androsta-5,16-diene]
- Mean weight ± standard error, Adrenals (Male HWT mice; 0.02 mmol/kg/day i.p.): 4.3 ± 0.2 mg
- Mean weight ± standard error, Kidneys (Male HWT mice; 0.02 mmol/kg/day i.p.): 604 ± 24 mg
- Mean weight ± standard error, Adrenals (Male HWT mice; 0.1 mmol/kg/day i.p.): 4.0 ± 0.2 mg
- Mean weight ± standard error, Kidneys (Male HWT mice; 0.1 mmol/kg/day i.p.): 500 ± 8 mg
- Mean weight ± standard error, Adrenals (Male HWT mice; 0.5 mmol/kg/day i.p.): 4.7 ± 0.2 mg
- Mean weight ± standard error, Kidneys (Male HWT mice; 0.5 mmol/kg/day i.p.): 449 ± 12 mg
- LH (Mean ± standard error) (luteinising hormone; 0.02 mmol/kg/day i.p.): 3.4 ± 0.5 ng/mL
- post mortem examination: appearance of organs [1]: all organs looked normal
- post mortem examination: deposits [1]: oil/white deposits i.p.

Molecule: C[C@]12CCC(=O)C[C@@H]1CC[C@@H]1[C@@H]2CC[C@]2(C)C(c3cccnc3)=CC[C@@H]12 [Ex. 9, 17-(3-Pyridyl)-5α-androst-16-en-3-one]
- IC50 (17α-hydroxylase; approx. 4 nM enzyme, A and B ring variations, read-out: IC50 Hydroxylase (Table 2(a))): 4.7 nM

Molecule: C[C@]12CC[C@H](O)CC1=CC[C@@H]1[C@@H]2CC[C@]2(C)C(c3ccccn3)=CC[C@@H]12 [Example 2-Pyridyl]
- concentration required to achieve 50% inhibition of hydroxylase, versus the 3-pyridyl (in words) (17α-hydroxylase): far greater
- concentration required to achieve 50% inhibition of lyase, versus the 3-pyridyl (in words) (C17-C20 lyase): far greater

B1: aromatase (Homo sapiens) (protein)
chain: MVLEMLNPIHYNITSIVPEAMPAATMPVLLLTGLFLLVWNYEGTSSIPGPGYCMGIGPLISHGRFLWMGIGSACNYYNRVYGEFMRVWISGEETLIISKSSSMFHIMKHNHYSSRFGSKLGLQCIGMHEKGIIFNNNPELWKTTRPFFMKALSGPGLVRMVTVCAESLKTHLDRLEEVTNESGYVDVLTLLRRVMLDTSNTLFLRIPLDESAIVVKIQGYFDAWQALLIKPDIFFKISWLYKKYEKSVKDLKDAIEVLIAEKRRRISTEEKLEECMDFATELILAEKRGDLTRENVNQCILEMLIAAPDTMSVSLFFMLFLIAKHPNVEEAIIKEIQTVIGERDIKIDDIQKLKVMENFIYESMRYQPVVDLVMRKALEDDVIDGYPVKKGTNIILNIGRMHRLEFFPKPNEFTLENFAKNVPYRYFQPFGFGPRGCAGKYIAMVMMKAILVTLLRRFHVKTLQGQCVESIQKIHDLSLHPDETKNMLEMIFTPRNSDRCLEH
- Km [2]: 0.039 µM
